Measured values as given in patent publication US4067142A, “Echinatin glycosides and their preparation” (Kabushiki Kaisha Hayashibara Seibutsu Kagaku Kenkyujo, priority 1975, dated 1978).
Converted amounts (≈) assume the structure as drawn.

Legend:
[1] = water solubility at 15° C; assay type: physicochemical; conditions: for solubility: water
[2] = tested on: human lymphoblastoid cells (E.B. -3 cells, Burkitt lymphoma); assay: inhibiting action on the growth of human lymphoblastoid cells (E.B.-3, Burkitt lymphoma) in suspension culture, cell count; assay type: cell-based; conditions: 100 μg per ml medium, added on the fourth day of cultivation; R.P.M.I. 1640 + 30% fetal calf serum, 37° C; vs non-added culture
Experimental: Human lymphoblastoid cells (E.B. -3 cells, Burkitt lymphoma) were grown in suspension culture and maintained in 2 ml R.P.M.I. 1640 medium (manufactured by Flow Laboratories Inc., U.S.A.) supplemented with 30% fetal calf serum, placed in Petri's dish, diameter 20 mm at a temperature of 37° C.
The numbers of human lymphoblastoid cells were counted according to the method used for counting the numbers of leucocyte with Burke's blood count platelet.

[3] = 15° C, parts or percentages by weight

solubility [1, 3] [µg/mL] | water solubility, in words ([1]; temperature not stated) | water solubility [1, 3] | Compound | inhibiting action on the growth of human lymphoblastoid cells [2]
~1000 (≈ 2310 µM) |  |  | COc1cc(O[C@@H]2O[C@H](CO)[C@@H](O)[C@H](O)[C@H]2O)ccc1/C=C/C(=O)c1ccc(O)cc1 [echinatin-4-glucoside] | 
< 1 | extremely low water solubility |  | COc1cc(O)ccc1/C=C/C(=O)c1ccc(O)cc1 [echinatin] | 
 |  | approximately 1% | echinatin-4'-glucoside | possesses an inhibiting action on the growth of human lymphoblastoid cells
~5000 (≈ 8410 µM) |  |  | COc1cc(O[C@@H]2O[C@H](CO)[C@@H](O)[C@H](O)[C@H]2O)ccc1/C=C/C(=O)c1ccc(O[C@@H]2O[C@H](CO)[C@@H](O)[C@H](O)[C@H]2O)cc1 [echinatin-4,4'-diglucoside] | 
